Assay results: patent US7427627B2, “N-(4-(4-methylthiazol-5-yl) pyrimidin-2-yl)-N-phenylamines as antiproliferative compounds” (Cyclacel Limited, priority 2001, dated 2008)
Read-outs that look alike come from different tables or passages of the source.

Legend:
Saos-2 = test: 72-h MTT cytotoxicity assay, Saos-2; assay type: cell-based; settings: Homo sapiens
Method: (§1) The compounds from the examples above were subjected to a standard cellular proliferation assay using human tumour cell lines obtained from the ATCC (American Type Culture Collection, 10801 University Boulevard, Manessas, Va. 20110-2209, USA). Standard 72-h MTT (thiazolyl blue; 3-[4,5-dimethylthiazol-2-yl]-2,5-diphenyltetrazolium bromide) assays were performed (Haselsberger, K.; Peterson, D. C.; Thomas, D. G.; Darling, J. L. Anti Cancer Drugs 1996, 7, 331-8; Loveland, B. E.; Johns, T. G.; Mackay, I. R.; Vaillant, F.; Wang, Z. X.; Hertzog, P. J. Biochemistry International 1992, 27, 501-10). In short: cells were seeded into 96-well plates according to doubling time and incubated overnight at 37° C. Test compounds were made up in DMSO and a 1/3 dilution series prepared in 100 μL cell media, added to cells (in triplicates) and incubated for 72 ho at 37° C. MTT was made up as a stock of 5 mg/mL in cell media and filter-sterilised. Media was removed from cells followed by a wash with 200 μL PBS. MTT solution was then added at 20 μL per well and incubated in the dark at 37° C. for 4 h. MTT solution was removed and cells again washed with 200 μL PBS. MTT dye was solubilised with 200 μL per well of DMSO with agitation.

Messa-Dx5 = test: 72-h MTT assay, Messa-Dx5; assay type: cell-based; settings: Homo sapiens, MES-SA/Dx5, 72 h, read-out: 72-h MTT IC50 Messa-Dx5; Table 3; Uterine
Method: as §1

H1299 = test: 72-h MTT assay, H1299; assay type: cell-based; settings: Homo sapiens, NCI-H1299, 72 h, read-out: 72-h MTT IC50 H1299; Table 3; Lung
Method: as §1

MCF-7 = test: 72-h MTT assay, MCF-7; assay type: cell-based; settings: Homo sapiens, MCF7, 72 h, read-out: 72-h MTT IC50 MCF-7; Table 3; Breast
Method: as §1

Lovo = test: 72-h MTT assay, Lovo; assay type: cell-based; settings: Homo sapiens, read-out: 72-h MTT IC50 Lovo, Table 3, Colon
Method: as §1

CDK2/cyclin E = target: T1, CDK2/cyclin E (Homo sapiens, UniProt P24941); test: Kinase assay CDK2/cyclin E; assay type: biochemical; settings: Table 1; read-out: Kinase inhibition, IC50 (μM) CDK2/E
T1 construct: His6

WI38 = test: 72-h MTT assay, WI38; assay type: cell-based; settings: Homo sapiens, WI-38, 72 h, read-out: 72-h MTT IC50 WI38; Table 3; Foetal lung (non-transformed)
Method: as §1

IMR-90 = test: 72-h MTT assay, IMR-90; assay type: cell-based; settings: Homo sapiens, IMR-90, 72 h, read-out: 72-h MTT IC50 IMR-90; Table 3; Foetal lung fibroblast (non-transformed)
Method: as §1

SJSA-1 = test: 72-h MTT assay, SJSA-1; assay type: cell-based; settings: Homo sapiens, SJSA-1, 72 h, read-out: 72-h MTT IC50 SJSA-1; Table 3; Osteogenic sarcoma
Method: as §1

HT29 = test: 72-h MTT cytotoxicity assay, HT29; assay type: cell-based; settings: Homo sapiens
Method: as §1

HCT-116 = test: 72-h MTT assay, HCT-116; assay type: cell-based; settings: Homo sapiens, HCT-116, 72 h, read-out: 72-h MTT IC50 HCT-116; Table 3; Colon
Method: as §1

AGS = test: 72-h MTT assay, AGS; assay type: cell-based; settings: Homo sapiens, read-out: 72-h MTT IC50 AGS, Table 3, Gastric adenocarcinoma
Method: as §1

nci-H460 = test: 72-h MTT assay, nci-H460; assay type: cell-based; settings: Homo sapiens, NCI-H460, 72 h, read-out: 72-h MTT IC50 nci-H460; Table 3; Lung
Method: as §1

Hacat = test: 72-h MTT assay, Hacat; assay type: cell-based; settings: Homo sapiens, read-out: 72-h MTT IC50 Hacat, Table 3, Skin keratinocytes
Method: as §1

CCRF-CEM = test: 72-h MTT assay, CCRF-CEM; assay type: cell-based; settings: Homo sapiens, read-out: 72-h MTT IC50 CCRF-CEM, Table 3, Leukaemia
Method: as §1

Messa = test: 72-h MTT assay, Messa; assay type: cell-based; settings: Homo sapiens, MES-SA, read-out: 72-h MTT IC50 Messa, Table 3, Uterine
Method: as §1

A549 = test: 72-h MTT cytotoxicity assay, A549; assay type: cell-based, human; settings: Homo sapiens
Method: In short: cells were seeded into 96-well plates according to doubling time and incubated overnight at 37° C. Test compounds were made up in DMSO and a 1/3 dilution series prepared in 100 μL cell media, added to cells (in triplicates) and incubated for 72 ho at 37° C. MTT was made up as a stock of 5 mg/mL in cell media and filter-sterilised. Media was removed from cells followed by a wash with 200 μL PBS. MTT solution was then added at 20 μL per well and incubated in the dark at 37° C. for 4 h. MTT solution was removed and cells again washed with 200 μL PBS. MTT dye was solubilised with 200 μL per well of DMSO with agitation.

Hela = test: 72-h MTT assay, Hela; assay type: cell-based; settings: Homo sapiens, read-out: 72-h MTT IC50 Hela, Table 3, Cervix
Method: as §1

SKUT-1B = test: 72-h MTT assay, SKUT-1B; assay type: cell-based; settings: Homo sapiens, Skut1B, read-out: 72-h MTT IC50 SKUT-1B, Table 3, Leiomyosarcoma
Method: as §1

DU-145 = test: 72-h MTT assay, DU-145; assay type: cell-based; settings: Homo sapiens, DU-145, 72 h, read-out: 72-h MTT IC50 DU-145; Table 3; Prostate
Method: as §1

SKUT-1 = test: 72-h MTT assay, SKUT-1; assay type: cell-based; settings: Homo sapiens, SK-UT-1, 72 h, read-out: 72-h MTT IC50 SKUT-1; Table 3; Leiomyosarcoma
Method: as §1

K562 = test: 72-h MTT assay, K562; assay type: cell-based; settings: Homo sapiens, K562, 72 h, read-out: 72-h MTT IC50 K562; Table 3; Chronic myelogenous leukaemia
Method: as §1

CDK4/cyclin D1 = CDK4/cyclin D1 (Homo sapiens, UniProt P11802); test: Kinase assay CDK4/cyclin D1;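 further: Enzyme: His6-tagged recombinant human CDK4 produced in baculovirus-infected Sf9 insect cells and purified by metal-chelate chromatography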
SK-N-MC = test: 72-h MTT assay, SK-N-MC; assay type: cell-based; settings: Homo sapiens, read-out: 72-h MTT IC50 SK-N-MC, Table 3, Neuroblastoma
Method: as §1

Hs27 = test: 72-h MTT assay, Hs27; assay type: cell-based; settings: Homo sapiens, HS27, 72 h, read-out: 72-h MTT IC50 Hs27; Table 3; Foreskin fibroblast (non-transformed)
Method: as §1

HL60 = test: 72-h MTT assay, HL60; assay type: cell-based; settings: Homo sapiens, HL-60, 72 h, read-out: 72-h MTT IC50 HL60; Table 3; Promyelocytic leukaemia
Method: as §1

tumour cells = test: 72-h MTT assay, mean over tumour cell lines; assay type: cell-based; settings: Homo sapiens, Table 3
Method: as §1

[1] = target: p70 ribosomal protein S6 kinase (Homo sapiens, UniProt P23443); test: Kinase specificity assay p70-S6K; assay type: biochemical; settings: Table 2
[2] = target: calmodulin-dependent kinase II; settings: read-out: Kinase specificity IC50 Cam-KII; Table 2
protein kinase C α = target: T2, protein kinase C α (Homo sapiens, UniProt P17252); test: Kinase specificity assay PKCα; assay type: biochemical; settings: Table 2
T2 construct: His6
Method: PKCα kinase activity may be measured by the incorporation of radio-labeled phosphate in Histone 3, as described. The reaction mixture (total volume 65 μl) consist of 50 mM Tris-HCl, 1 mM Calcium acetate, 3 mM DTT, 0.03 mg/ml Phosphatidylserine, 2.4 μg/ml PMA, 0.04% NP40, 12 mM Mg/Cl, purified PKCα-100 ng, Histone 3, 0.2 mg/ml, 100 μM ATP, 0.2 μCi [γ-^32P]-ATP. The reaction is carried over 15 min at 37° C. in microplate shaker and is stopped by adding 10 μl 75 mM orthophosphoric acid and placing the plate on ice. 50 μl of the reaction mixture is transferred onto P81 filterplate and after washing off the free radioactive phosphate (3 times with 200 μl 75 mM orthophosphoric acid per well) 50 μl of scintillation liquid (Microscint 40) were added to each well and the radioactivity is measured on Scintillation counter (Topcount, HP).

[3] = target: stress-activated protein kinase 2a (Homo sapiens, UniProt Q16539); test: Kinase specificity assay SAPK2a; assay type: biochemical; settings: Table 2
Ableson tyrosine kinase = Ableson tyrosine kinase (Homo sapiens, UniProt P00519); test: Kinase specificity assay Abl; assay type: biochemical; settings: Table 2
[4] = target: CDK7-cyclin H-MAT 1 complex (Homo sapiens, UniProt P50613); test: Kinase specificity assay CDK7/H; assay type: biochemical; settings: Table 2
protein kinase B = protein kinase B (Homo sapiens, UniProt P31749); test: Kinase specificity assay Akt/PKB; assay type: biochemical; settings: Table 2
polo-like kinase 1 = polo-like kinase 1 (Homo sapiens, UniProt P53350); test: Kinase specificity assay Plk1; assay type: biochemical; settings: Table 2
[5] = target: extracellular-signal-regulated kinase 2 (Homo sapiens, UniProt P28482); test: Kinase specificity assay ERK-2; assay type: biochemical; settings: Table 2
[6] = target: glycogen synthase kinase 3β (Homo sapiens, UniProt P49841); test: Kinase specificity assay GSK3β; assay type: biochemical; settings: Table 2
[7] = SAOS-2, 72 h, read-out: 72-h MTT IC50 Saos-2, Table 3, Bone osteosarcoma
[8] = SAOS-2, read-out: 72-h MTT in vitro IC50 (μM) Saos-2, Table 1, 72 h
[9] = HT-29, 72 h, read-out: 72-h MTT IC50 HT29, Table 3, Colon
[10] = HT-29, read-out: 72-h MTT in vitro IC50 (μM) HT29, Table 1, 72 h
[11] = A549, 72 h, read-out: 72-h MTT IC50 A549, Table 3, Lung
[12] = A549, read-out: 72-h MTT in vitro IC50 (μM) A549, Table 1, 72 h

CDK4/cyclin D1, sequence (P11802 whole entry): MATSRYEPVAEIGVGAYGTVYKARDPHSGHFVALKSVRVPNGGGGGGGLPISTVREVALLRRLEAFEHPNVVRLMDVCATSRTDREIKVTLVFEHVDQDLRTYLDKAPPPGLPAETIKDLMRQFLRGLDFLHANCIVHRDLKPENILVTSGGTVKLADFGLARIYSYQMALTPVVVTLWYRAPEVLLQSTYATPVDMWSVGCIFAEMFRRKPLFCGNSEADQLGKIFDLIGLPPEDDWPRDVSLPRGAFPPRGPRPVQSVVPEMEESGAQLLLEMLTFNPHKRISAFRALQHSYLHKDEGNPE
CDK4/cyclin D1, sequence (P24385 whole entry partner): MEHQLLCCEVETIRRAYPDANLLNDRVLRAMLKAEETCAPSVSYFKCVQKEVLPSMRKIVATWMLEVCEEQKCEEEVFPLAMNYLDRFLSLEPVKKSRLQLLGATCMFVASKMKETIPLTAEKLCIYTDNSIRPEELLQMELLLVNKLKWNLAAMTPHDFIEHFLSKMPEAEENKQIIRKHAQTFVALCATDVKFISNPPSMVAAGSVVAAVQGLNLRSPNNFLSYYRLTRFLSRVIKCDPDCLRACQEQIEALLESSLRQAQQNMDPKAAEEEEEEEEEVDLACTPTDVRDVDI
glycogen synthase kinase 3β, sequence (P49841 whole entry): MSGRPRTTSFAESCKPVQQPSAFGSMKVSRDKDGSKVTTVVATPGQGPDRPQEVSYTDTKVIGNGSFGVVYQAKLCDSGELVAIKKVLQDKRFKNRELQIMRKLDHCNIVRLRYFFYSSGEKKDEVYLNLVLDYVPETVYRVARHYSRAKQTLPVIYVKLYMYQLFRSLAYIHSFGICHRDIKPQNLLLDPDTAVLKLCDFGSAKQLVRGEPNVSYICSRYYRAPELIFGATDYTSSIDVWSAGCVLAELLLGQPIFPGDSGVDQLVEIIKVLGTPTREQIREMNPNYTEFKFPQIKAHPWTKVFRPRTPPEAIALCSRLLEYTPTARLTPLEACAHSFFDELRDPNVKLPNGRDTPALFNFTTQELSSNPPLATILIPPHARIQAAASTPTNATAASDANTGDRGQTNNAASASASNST
p70 ribosomal protein S6 kinase, sequence (P23443 24-525): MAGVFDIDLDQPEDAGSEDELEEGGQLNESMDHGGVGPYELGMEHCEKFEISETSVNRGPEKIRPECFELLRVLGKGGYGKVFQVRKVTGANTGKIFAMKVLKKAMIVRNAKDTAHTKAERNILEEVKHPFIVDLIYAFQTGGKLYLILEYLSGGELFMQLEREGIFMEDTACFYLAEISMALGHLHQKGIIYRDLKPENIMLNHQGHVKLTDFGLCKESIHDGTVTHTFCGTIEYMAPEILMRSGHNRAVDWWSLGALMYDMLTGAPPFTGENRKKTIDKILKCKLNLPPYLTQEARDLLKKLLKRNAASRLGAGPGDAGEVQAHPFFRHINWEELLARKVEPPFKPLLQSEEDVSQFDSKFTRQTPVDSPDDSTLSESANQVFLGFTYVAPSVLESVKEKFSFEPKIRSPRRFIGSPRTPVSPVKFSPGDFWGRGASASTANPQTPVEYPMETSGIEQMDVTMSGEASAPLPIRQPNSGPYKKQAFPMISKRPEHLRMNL
CDK7-cyclin H-MAT 1 complex, sequence (P50613 whole entry): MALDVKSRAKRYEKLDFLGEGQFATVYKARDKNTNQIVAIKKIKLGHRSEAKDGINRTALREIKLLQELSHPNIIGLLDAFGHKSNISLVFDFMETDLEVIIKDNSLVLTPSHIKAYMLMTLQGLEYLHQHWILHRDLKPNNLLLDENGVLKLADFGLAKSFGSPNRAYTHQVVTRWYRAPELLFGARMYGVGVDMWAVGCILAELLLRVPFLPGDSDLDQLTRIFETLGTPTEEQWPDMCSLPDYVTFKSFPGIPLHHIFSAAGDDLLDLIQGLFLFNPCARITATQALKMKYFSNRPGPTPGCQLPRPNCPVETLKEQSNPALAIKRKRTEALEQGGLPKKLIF
CDK7-cyclin H-MAT 1 complex, sequence (P51946 whole entry partner): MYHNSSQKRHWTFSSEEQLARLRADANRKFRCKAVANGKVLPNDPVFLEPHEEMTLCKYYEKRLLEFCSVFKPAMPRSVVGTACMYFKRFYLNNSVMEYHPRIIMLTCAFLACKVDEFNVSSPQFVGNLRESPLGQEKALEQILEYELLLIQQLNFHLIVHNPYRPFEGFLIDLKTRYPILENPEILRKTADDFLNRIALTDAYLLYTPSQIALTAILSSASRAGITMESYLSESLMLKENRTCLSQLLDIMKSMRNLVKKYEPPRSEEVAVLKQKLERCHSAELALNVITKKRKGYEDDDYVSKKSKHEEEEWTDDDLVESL
CDK7-cyclin H-MAT 1 complex, sequence (P51948 whole entry partner): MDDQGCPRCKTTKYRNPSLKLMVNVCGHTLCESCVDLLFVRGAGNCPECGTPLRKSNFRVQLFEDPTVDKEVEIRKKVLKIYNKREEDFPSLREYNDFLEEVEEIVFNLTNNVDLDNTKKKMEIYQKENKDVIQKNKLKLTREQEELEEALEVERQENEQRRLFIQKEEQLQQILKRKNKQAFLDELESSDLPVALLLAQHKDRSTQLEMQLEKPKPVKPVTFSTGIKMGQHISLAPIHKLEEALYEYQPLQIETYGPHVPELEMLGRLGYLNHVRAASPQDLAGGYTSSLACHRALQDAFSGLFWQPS
Ableson tyrosine kinase, sequence (P00519 whole entry): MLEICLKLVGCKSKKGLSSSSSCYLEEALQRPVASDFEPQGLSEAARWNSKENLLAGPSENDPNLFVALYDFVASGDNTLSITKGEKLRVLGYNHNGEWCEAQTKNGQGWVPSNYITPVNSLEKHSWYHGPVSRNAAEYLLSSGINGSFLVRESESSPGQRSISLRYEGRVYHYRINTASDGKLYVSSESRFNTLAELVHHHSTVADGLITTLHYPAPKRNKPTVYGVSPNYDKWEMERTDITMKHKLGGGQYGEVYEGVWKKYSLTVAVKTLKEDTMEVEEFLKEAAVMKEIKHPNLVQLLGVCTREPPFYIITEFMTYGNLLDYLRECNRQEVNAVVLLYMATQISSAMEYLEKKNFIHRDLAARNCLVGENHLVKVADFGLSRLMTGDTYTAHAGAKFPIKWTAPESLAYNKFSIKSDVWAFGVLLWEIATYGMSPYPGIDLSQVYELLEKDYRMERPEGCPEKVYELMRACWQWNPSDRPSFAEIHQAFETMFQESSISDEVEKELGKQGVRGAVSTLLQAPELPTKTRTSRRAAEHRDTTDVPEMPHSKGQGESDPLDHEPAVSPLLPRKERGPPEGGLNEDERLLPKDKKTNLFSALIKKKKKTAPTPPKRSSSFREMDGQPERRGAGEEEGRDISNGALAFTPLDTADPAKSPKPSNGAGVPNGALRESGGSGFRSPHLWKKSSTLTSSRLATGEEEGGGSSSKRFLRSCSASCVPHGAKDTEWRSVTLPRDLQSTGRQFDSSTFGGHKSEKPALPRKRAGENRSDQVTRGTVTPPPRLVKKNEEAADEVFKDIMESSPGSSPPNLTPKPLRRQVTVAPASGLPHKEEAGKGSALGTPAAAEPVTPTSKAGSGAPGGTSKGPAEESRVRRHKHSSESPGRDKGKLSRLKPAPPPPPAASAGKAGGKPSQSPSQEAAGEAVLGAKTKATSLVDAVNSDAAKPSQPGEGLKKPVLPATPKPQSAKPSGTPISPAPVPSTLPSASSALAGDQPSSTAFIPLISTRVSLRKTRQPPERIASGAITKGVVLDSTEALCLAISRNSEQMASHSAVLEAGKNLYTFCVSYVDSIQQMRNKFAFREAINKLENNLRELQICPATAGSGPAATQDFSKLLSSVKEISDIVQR
polo-like kinase 1, sequence (P53350 whole entry): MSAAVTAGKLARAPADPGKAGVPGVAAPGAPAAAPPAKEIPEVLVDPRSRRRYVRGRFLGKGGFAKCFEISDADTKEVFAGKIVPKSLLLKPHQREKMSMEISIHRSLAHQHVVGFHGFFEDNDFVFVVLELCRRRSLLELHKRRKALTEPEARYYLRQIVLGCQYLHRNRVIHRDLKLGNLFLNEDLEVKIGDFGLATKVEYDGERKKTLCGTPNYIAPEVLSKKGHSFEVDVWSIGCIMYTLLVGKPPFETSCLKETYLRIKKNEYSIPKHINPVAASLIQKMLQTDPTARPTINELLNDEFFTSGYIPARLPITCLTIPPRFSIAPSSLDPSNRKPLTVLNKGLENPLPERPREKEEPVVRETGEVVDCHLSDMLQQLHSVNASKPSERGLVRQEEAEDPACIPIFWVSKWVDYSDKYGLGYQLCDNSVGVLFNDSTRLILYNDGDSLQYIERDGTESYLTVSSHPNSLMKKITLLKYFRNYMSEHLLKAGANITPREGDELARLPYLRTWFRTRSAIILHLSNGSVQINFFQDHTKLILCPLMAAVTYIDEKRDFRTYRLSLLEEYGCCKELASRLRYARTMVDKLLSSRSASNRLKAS

Compound	IC50 (Saos-2; [7]) [µM]	IC50 (Saos-2; [8]) [µM]	IC50 (Messa-Dx5) [µM]	IC50 (H1299) [µM]	IC50 (Lovo) [µM]	IC50 (CDK2/cyclin E) [µM]	IC50 (WI38) [µM]	IC50 (IMR-90) [µM]	IC50 (HT29; [9]) [µM]	IC50 (HT29; [10]) [µM]	IC50 (HCT-116) [µM]	IC50 (AGS) [µM]	IC50 (nci-H460) [µM]	IC50 (Hacat) [µM]	IC50 (CCRF-CEM) [µM]	IC50 (Messa) [µM]	IC50 (A549; [11]) [µM]	IC50 (A549; [12]) [µM]	IC50 (Hela) [µM]	IC50 (SKUT-1B) [µM]	also measured
Cc1nc(N)sc1-c1ccnc(Nc2ccc(CCO)cc2)n1 [Compound 15, 2-{4-[4-(2-Amino-4-methyl-thiazol-5-yl)-pyrimidin-2-ylamino]-phenyl}-ethanol]	0.93	2.84	0.14	0.63	0.23	0.43	> 5	> 5	0.41	3.8	0.69	1.05	0.6	0.73	0.85	0.55	0.95	3.04	0.55	0.39	IC50 (MCF-7): 4.74 µM; IC50 (SJSA-1): 1.5 µM; IC50 (DU-145): 0.98 µM; IC50 (SKUT-1): 0.81 µM; IC50 (K562): 1.35 µM; IC50 (CDK4/cyclin D1): 1.36 µM; IC50 (SK-N-MC): 0.58 µM; IC50 (Hs27): > 5 µM; IC50 (HL60): 2.87 µM; IC50 (tumour cells): 1.03 µM
Cc1nc(N)sc1-c1ccnc(Nc2cccc(Br)c2)n1 [Compound 16, [4-(2-Amino-4-methyl-thiazol-5-yl)-pyrimidin-2-yl]-(3-bromo-phenyl)-amine]	0.73	0.81	0.59	1.06	0.21	0.09	> 5	> 5	0.25	0.66	0.96	1.11	0.28	0.5	0.5	0.59	1.32	0.82	0.56	0.3	IC50 (DU-145): 1.75 µM; IC50 (SKUT-1): 0.64 µM; IC50 (K562): 0.54 µM; IC50 (CDK4/cyclin D1): 1.77 µM; IC50 (SK-N-MC): 0.42 µM; IC50 (Hs27): > 5 µM; IC50 (HL60): 0.43 µM; IC50 (tumour cells): 0.68 µM
Cc1nc(C)c(-c2ccnc(Nc3ccc(N(C)C)c(Cl)c3)n2)s1 [Compound 26, 2-[N-(4-N,N-Dimethylamino-3-chlorophenyl)]-4-(2,4-dimethylthiazol-5-yl)-pyrimidineamine]	–	0.32	–	–	–	–	–	–	–	0.15	–	–	–	–	–	–	–	0.29	–	–	IC50 [1]: 32 µM; IC50 [2]: 69 µM; IC50 (protein kinase C α): 24 µM; IC50 [3]: 86 µM; IC50 (Ableson tyrosine kinase): 1.6 µM; IC50 [4]: 4.8 µM; IC50 (protein kinase B): 6.3 µM; IC50 (polo-like kinase 1): > 100 µM; IC50 [5]: 20 µM; IC50 [6]: 2.2 µM
